For the test, the target named is T1, α-amylase (from human saliva, EC 3.2.1.1) (Homo sapiens, UniProt P0DUB6).
T1 construct: gene AMY1A
T1 sequence (P0DUB6 16-511): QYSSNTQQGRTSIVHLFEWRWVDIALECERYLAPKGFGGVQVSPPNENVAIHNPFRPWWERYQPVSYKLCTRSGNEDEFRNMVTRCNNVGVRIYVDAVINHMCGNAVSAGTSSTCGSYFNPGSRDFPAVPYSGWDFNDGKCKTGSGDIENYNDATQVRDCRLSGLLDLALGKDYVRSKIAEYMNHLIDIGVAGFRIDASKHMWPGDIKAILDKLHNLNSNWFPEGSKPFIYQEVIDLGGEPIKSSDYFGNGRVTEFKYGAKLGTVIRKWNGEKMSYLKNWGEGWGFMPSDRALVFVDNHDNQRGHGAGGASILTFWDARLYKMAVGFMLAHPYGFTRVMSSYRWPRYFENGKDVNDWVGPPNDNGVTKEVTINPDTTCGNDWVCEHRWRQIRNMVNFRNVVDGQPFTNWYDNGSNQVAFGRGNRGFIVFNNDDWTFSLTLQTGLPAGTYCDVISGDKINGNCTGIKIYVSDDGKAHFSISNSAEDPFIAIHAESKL
The experiment in a line: Enzyme inhibition kinetics (Lineweaver-Burk and Dixon plots) with amylose substrate; amylose-immobilized QCM-A hydrolysis assay. The test is classed as biochemical.

Each structure is given as a SMILES string.

Broadly, the Ki is the equilibrium dissociation constant of an inhibitor or competing ligand from its target. The low end stands for higher affinity, the high end for lower affinity. `CC(=O)O[C@H]1CC(C)(C)C(=C=C/C(C)=C/C=C/C(C)=C/C=C/C=C(C)/C=C/C=C(\C)C(=O)C[C@@]23O[C@]2(C)C[C@@H](O)CC3(C)C)[C@](C)(O)C1` [fucoxanthin] had an inhibitory constant (Ki) of 36.3 µM.

These data come from publication PMC9877462, “Real time monitoring and evaluation of the inhibition effect of fucoxanthin against α-amylase activity by using QCM-A” (Frontiers in Nutrition, 2023).
